The values that follow are results of earlier work, collected in US20040122104A1 (Collegium Pharmaceutical, Inc., priority 2002, published 2004).

Structures are written as SMILES. Like-named read-outs stand apart in the source and are kept apart here.

The conditions of data set [1]: approximately 400,000 patients.
For data set [2] the following is noted: intravenous, of 10 patients.
The conditions of data set [3]: compared with SSRIs and tricyclic antidepressants.
For data set [4] the following is noted: 75-100 mg/day twice daily for 8 weeks, 219 elderly patients.
Assay in data set [5]: not given
The source holds these as a separate data set.

For data set [6] the following is noted: in vivo.

With `CCN(CC)C(=O)C1(c2ccccc2)CC1CN` (centres unmarked) [milnacipran, Milnacipran], in data set [1], the toxicity in humans entry is on record as “non-toxic”. Further, the “global pain score, mean value” (1-7 scale (1 very much improved, 4 unchanged, 7 very much worse), patients who reached endpoint) is recorded as 2.3. Besides, under “BID-IR group (twice daily immediate release)”, the “participants who failed the dose escalation” value was 6%. Also, the “participants who failed the dose escalation” value (QD-IR group (once daily immediate release)) was 19%. In addition, in data set [2], the “patients reporting transient nausea” value is recorded as “five”. Besides, in data set [3], the “disturbances of REM sleep” value is reported as “only minor disturbances”. Also, the “only adverse event reported more frequently than for imipramine recipients” value in data set [4] was “nausea”. For the same compound, in data set [5] (liver metabolism), the “metabolites as share of the concentration of the parent drug” value is “about 10%” and the “number of chemically identified metabolites” value was “ten”. Besides, in data set [5] (oral), the “time in which oral doses are absorbed and extensively distributed in the body” value was 1 to 2 h.

`CN[C@H]1CC[C@@H](c2ccc(Cl)c(Cl)c2)c2ccccc21` [sertraline]: the “top three adverse events associated with discontinuation of treatment” value in data set [6] was “nausea, insomnia, and diarrhea”.
